22 compounds from patent US7439343B2, “Aminoglycoside-polyamine displacers and methods of use in displacement chromatography” (Rensselaer Polytechnic Institute, priority 2005, dated 2008) can be followed below.

Assay [1] concerns the target horse cytochrome-C on HP Sepharose SP. The assay is described as follows: Batch displacement assay, cytochrome-C on HP Sepharose SP. It counts as binding. The note with it: input displacer concentration displacing 50% of bound protein; 50 mM phosphate, pH 6.0. An excerpt:
(§1) A modified batch displacement assay was used to investigate displacer efficacy of the carbohydrate derivatives over a wide range of concentrations. The carbohydrate derivatives from hereon will be referred to as the displacer candidates unless otherwise specified. Different input concentrations of the displacer candidates were employed to determine the DC50 value, which is the input displacer concentration required to displace fifty percent of the initially bound protein. The lower the DC50 value the more efficacious is the displacer candidate.
Table 1 is of displacer candidates and their respective DC50 values of horse cytochrome-C on HP Sepharose SP and Source 15S cation exchange resins in accordance with the present invention. Column 201 is the displacer candidate evaluated. Column 202 is DC50 values of horse cytochrome-C on HP Sepharose SP. Column 203 is the DC50 values of horse cytochrome-C on Source 15S cation exchange resin. The above approach was employed to determine the DC50 values of the displacer candidates for the displacement of horse cytochrome-C on HP Sepharose SP and Source 15S cation exchange resins at pH 6.0.
(§2) The bulk stationary phase (HP Sepharose SP or Source 15S) was first washed once with de-ionized water and then three times with the buffer, (50 mM phosphate, pH 6.0) and allowed to equilibrate for 2 hours. After gravity-settling of the stationary phase, the supernatant was removed and 3.0 mL of the remaining stationary phase slurry was equilibrated with 36 ml containing 3 mg/ml of the protein (horse heart cytochrome-C or chicken egg lysozyme) in 50 mM phosphate buffer, pH 6.0, at 20° C.
(§3) The protein was equilibrated with the resin for five hours in order to attain complete equilibration during which, the stationary phase was allowed to gravity-settle. Upon settling, the supernatant was removed and the protein content in the supernatant was determined using absorbance detection at 280 or 405 nm using a plate reader. The mass of the protein adsorbed on the stationary phase was determined by mass balance.
(§4) For the screening experiments, 300 μL of different initial concentrations (ranging from 0.3 to 5 mM) of a displacer solution was added to 25 μL aliquots of the stationary phase slurry with bound protein. (note: a different displacer candidate and concentration were employed for each vial to enable parallel screening). The system was equilibrated for 5 h. After equilibrium was achieved, the supernatant was removed and the protein content was determined by absorbance detection at 280 or 405 nm using a plate reader.
(§5) The percent protein displaced, was calculated for each aliquot based on the protein mass balance and the data was plotted as a function of the initial displacer concentration. The resulting plots were then employed to determine the initial displacer concentration required to displace fifty percent of the adsorbed protein (i.e. the DC50).

Assay [2] addresses horse cytochrome-C on Source 15S cation exchange resin. The assay is described as follows: Batch displacement assay, cytochrome-C on Source 15S. Conditions: input displacer concentration displacing 50% of bound protein; 50 mM phosphate, pH 6.0. It counts as binding.
Source text: as §1
Column 201 is the displacer candidate evaluated. Column 202 is DC50 values of horse cytochrome-C on HP Sepharose SP. Column 203 is the DC50 values of horse cytochrome-C on Source 15S cation exchange resin. The above approach was employed to determine the DC50 values of the displacer candidates for the displacement of horse cytochrome-C on HP Sepharose SP and Source 15S cation exchange resins at pH 6.0.
The influence of the stationary phase on displacer affinity was investigated using a second strong cation exchange resin, Source 15S.
as §2, §3, §4, §5

For assay [3], the system named is chicken-egg lysozyme adsorbed on HP Sepharose SP. Briefly: Batch displacement assay, lysozyme on HP Sepharose SP. It counts as binding. Conditions: displacer concentration 2.5 mM. As for the experimental part:
FIG. 2 depicts a graph comparing the % lysozyme and % cytochrome-C displaced on HP Sepharose SP in accordance with the present invention. The Y axis is % protein displaced. The X axi is the displacer candidate evaluated. The displacer candidate concentration is 2.5 mM in an embodiment of the present invention. In order to evaluate the displacer candidates with another protein, experiments were carried out with chicken-egg lysozyme adsorbed on HP Sepharose SP. Referring to FIG. 2, a comparison of the percent protein displaced for both lysozyme and cytochrome-C at displacer concentrations of 2.5 mM is shown. The data is arranged in increasing order of percent lysozyme displaced. […] Upon settling, the supernatant was removed and the protein content in the supernatant was determined using absorbance detection at 280 or 405 nm using a plate reader. The mass of the protein adsorbed on the stationary phase was determined by mass balance. […] After equilibrium was achieved, the supernatant was removed and the protein content was determined by absorbance detection at 280 or 405 nm using a plate reader. The percent protein displaced, was calculated for each aliquot based on the protein mass balance and the data was plotted as a function of the initial displacer concentration. […]

For another assay, the system named is DNA. Briefly: Ethidium bromide displacement assay (DNA binding). Also on record: species or system calf. The note with it: 96-well format. An excerpt: A method for condensing DNA comprising combining the DNA with at least one of the aforementioned derivatives of a carbohydrate compound wherein the DNA is bound to the carbohydrate compound is presented in accordance with the present invention. FIG. 3 depicts a graph of DNA binding efficacy of the displacer candidates in an embodiment of the present invention. The Y axis is % fluorescence decreased and the X axis is the carbohydrate derivative evaluated.
Referring to FIG. 3, an ethidium bromide displacement assay was employed to evaluate the DNA-binding affinity of carbohydrate derivatives in a 96-well format. Using this screen, the percent fluorescence decreased was used as a parameter to rank the DNA-binding efficacy of the various compounds.

For the compound `NCCCNCCCCNCCCNC(=O)NC1C(O)OC(COC(=O)NCCCNCCCCNCCCN)C(O)C1O` (stereo not drawn) [4a], in assay [1], the DC50 amounted to 2800 µM. For the same compound, in assay [2], the DC50 came to 900 µM and the “DC50-Cytochrome C on Source 15S” value is on record as “sub-millimolar”.

Take `COC1OC(COC(=O)NCCCNCCCCNCCCN)C(O)C(O)C1NC(=O)NCCCNCCCCNCCCN` (stereo not drawn) [4b]: the DC50 in assay [1] worked out at 3600 µM. Further, in assay [2], the DC50 was found to be 800 µM and the “DC50-Cytochrome C on Source 15S” value is given as “sub-millimolar”.

`NCCCNCCCCNCCCNC(=O)NC1C(OCc2ccccc2)OC(COC(=O)NCCCNCCCCNCCCN)C(O)C1O` (stereo not drawn) [4c] registered a DC50 in assay [1] of 1300 µM. In assay [2], the DC50 stood at 800 µM and the “DC50-Cytochrome C on Source 15S” value is on record as “sub-millimolar”.

`NCCCNCCCCNCCCNC(=O)NC1C(OCc2ccccc2)OC(COC(=O)NCCCNCCCCNCCCN)C(O)C1O` (stereo not drawn) [4d] gave a DC50 in assay [1] of 2800 ± 200 µM. For the same compound, in assay [2], the DC50 turned out to be 800 µM and the “DC50-Cytochrome C on Source 15S” value is “sub-millimolar”.

Regarding `NCCNC(=O)NCC1OC(OC2C(CO)OC(OC3C(O)C(NC(=O)NCCN)CC(NC(=O)NCCN)C3OC3OC(CNC(=O)NCCN)C(O)C(O)C3NC(=O)NCCN)C2O)C(NC(=O)NCCN)C(O)C1O` (stereo not drawn) [14a], the DC50 was 1600 µM in assay [1] and 1300 ± 90 µM in assay [2]. Further, the “DC50-Cytochrome C on HP Sepharose SP” value in assay [1] is recorded as “highest affinity among the neomycin derivatives”.

On to `NCCNC(=O)NCC1OC(OC2C(NC(=O)NCCN)CC(NC(=O)NCCN)C(O)C2O)C(NC(=O)NCCN)C(O)C1O` (stereo not drawn) [17a], for which the DC50 in assay [1] was 2100 µM; in assay [2], 2300 ± 40 µM.

In the case of `NCCCNCCCCNCCCNC(=O)NCC1OC(OC2C(NC(=O)NCCCNCCCCNCCCN)CC(NC(=O)NCCCNCCCCNCCCN)C(O)C2O)C(NC(=O)NCCCNCCCCNCCCN)C(O)C1O` (stereo not drawn) [17b, neamine tetraspermine], the results for the DC50 in assay [1] and in assay [2] were 700 µM and 600 µM, respectively. Also, the “DC50-Cytochrome C on HP Sepharose SP” value in assay [1] was “sub-millimolar”. The “percent protein displaced (lysozyme)” value in assay [3] is 52.8%.

As for `COC1OC(CO)C(OC2OC(CNC(=O)NCCNCCN)C(O)C(O)C2NC(=O)NCCNCCN)C1O` (stereo not drawn) [20a], the DC50 in assay [1] is 9400 ± 2650 µM; in assay [2], 4800 ± 30 µM.

`COC1OC(CO)C(OC2OC(CNC(=O)NCCCNCCCCNCCCN)C(O)C(O)C2NC(=O)NCCCNCCCCNCCCN)C1O` (stereo not drawn) [20b] gave a DC50 in assay [1] of 1100 µM. Besides, in assay [2], the DC50 stood at 800 ± 40 µM and the “DC50-Cytochrome C on Source 15S” value is “sub-millimolar”.

On to `NCCNC(=O)NCC1OC(OC2C(NC(=O)NCCN)CC(NC(=O)NCCN)C(OC3OC(CO)C(O)C(NC(=O)NCCN)C3O)C2O)C(O)C(O)C1O` (stereo not drawn) [23a], for which the DC50 in assay [1] turned out to be 2000 ± 150 µM; in assay [2] it was 1700 ± 20 µM.

Consider `NCCCNCCCCNCCCNC(=O)NCC1OC(OC2C(NC(=O)NCCCNCCCCNCCCN)CC(NC(=O)NCCCNCCCCNCCCN)C(OC3OC(CO)C(O)C(NC(=O)NCCCNCCCCNCCCN)C3O)C2O)C(O)C(O)C1O` (stereo not drawn) [23c, kanamycin A tetraspermine], for which, in assay [1], the DC50 was found to be 1000 µM and the “DC50-Cytochrome C on HP Sepharose SP” value is on record as “sub-millimolar”. In assay [2], this compound gave a DC50 of 900 µM.

In the case of `NC[C@H]1O[C@H](O[C@H]2[C@H](O)[C@@H](O[C@H]3O[C@H](CO)[C@@H](O)[C@H](N)[C@H]3O)[C@H](N)C[C@@H]2N)[C@H](N)[C@@H](O)[C@@H]1O` [Bekanamycin, bekanamycin, reference compound], the DC50 in assay [1] turned out to be 6200 ± 370 µM; in assay [2] it was 3100 ± 2290 µM. The “% fluorescence decreased” value with DNA is listed as “relatively low efficacies”.

With `NCCNCCN` [Diethylenetriamine, diethylenetriamine, reference compound], the DC50 in assay [1] was 10800 ± 190 µM; in assay [2], 14400 ± 3670 µM.

Regarding `NCCN` [Ethylenediamine, ethylenediamine, reference compound], the DC50 in assay [1] amounted to 20200 ± 2670 µM; in assay [2], 17600 ± 2150 µM.

Turning to `NC[C@H]1O[C@H](O[C@H]2[C@H](O)[C@@H](O)[C@H](N)C[C@@H]2N)[C@H](N)[C@@H](O)[C@@H]1O` [Neamine, neamine, reference compound], the DC50 worked out at 5600 µM in assay [1] and 4900 ± 1670 µM in assay [2].

Consider `NCC1OC(OC2C(CO)OC(OC3C(O)C(N)CC(N)C3OC3OC(CN)C(O)C(O)C3N)C2O)C(N)C(O)C1O` (stereo not drawn) [Neomycin, neomycin, reference compound], for which the DC50 in assay [1] was found to be 2800 µM; in assay [2], 1700 ± 20 µM. The “% fluorescence decreased” value in the assay on DNA is on record as “relatively low efficacies”.

With `NCCCCNCCCN` [Spermidine, spermidine, reference compound], the DC50 in assay [1] is 7700 ± 1440 µM; in assay [2], 5800 ± 440 µM. Besides, the “% fluorescence decreased” value in the assay on DNA is recorded as “relatively low efficacies”.

`NCCCNCCCCNCCCN` [Spermine, spermine, reference compound]: the DC50 in assay [1] was 4800 µM; in assay [2], 4300 ± 640 µM. For the same compound, in the assay with DNA, the “% fluorescence decreased” value is “relatively low efficacies”.

On to `NCCCNCCCCNCCCNC(=O)OCC1OC(n2cnc3c(N)ncnc32)CC1O` (stereo not drawn) [compound 7], for which the DC50 worked out at 11700 ± 100 µM in assay [1] and 6200 ± 460 µM in assay [2].

Take `NCCCNCCCCNCCCNC(=O)OC1CC(n2cnc3c(N)ncnc32)OC1CO` (stereo not drawn) [compound 9]: the DC50 turned out to be 12300 ± 250 µM in assay [1] and 12900 ± 1460 µM in assay [2].

Consider `NCCCNCCCCNCCCNC(=O)Nc1ncnc2c1ncn2C1CC(OC(=O)NCCCNCCCCNCCCN)C(COC(=O)NCCCNCCCCNCCCN)O1` (stereo not drawn) [compound 11], for which the values for the DC50 in assay [1] and in assay [2] were 2300 µM and 1100 ± 140 µM, respectively.

On to `NCCNC(=O)NCC1OC(OC2C(NC(=O)NCCN)CC(NC(=O)NCCN)C(OC3OC(CO)C(O)C(NC(=O)NCCN)C3O)C2O)C(N)C(O)C1O` (stereo not drawn) [compound 24], for which the DC50 amounted to 1900 ± 10 µM in assay [1] and 1900 ± 60 µM in assay [2].
